Data on three molecules can be found in patent US4732901A, “Certain pyridyl, thienyl or furyl propenoic acids or esters having anti-inflammatory anti-allergic properties” (Beecham Group p.l.c., priority 1985, dated 1988).

The target in assay [1] is T1, 5-Lipoxygenase enzyme (10,000 g supernatant from RBL-1 cells) (Rattus norvegicus, UniProt P12527).
T1 construct: prepared as a 10,000 g supernatant from RBL-1 cells; endogenous in cells; host or cells: RBL-1 cells (10,000 g supernatant)
T1 sequence (P12527 1-673): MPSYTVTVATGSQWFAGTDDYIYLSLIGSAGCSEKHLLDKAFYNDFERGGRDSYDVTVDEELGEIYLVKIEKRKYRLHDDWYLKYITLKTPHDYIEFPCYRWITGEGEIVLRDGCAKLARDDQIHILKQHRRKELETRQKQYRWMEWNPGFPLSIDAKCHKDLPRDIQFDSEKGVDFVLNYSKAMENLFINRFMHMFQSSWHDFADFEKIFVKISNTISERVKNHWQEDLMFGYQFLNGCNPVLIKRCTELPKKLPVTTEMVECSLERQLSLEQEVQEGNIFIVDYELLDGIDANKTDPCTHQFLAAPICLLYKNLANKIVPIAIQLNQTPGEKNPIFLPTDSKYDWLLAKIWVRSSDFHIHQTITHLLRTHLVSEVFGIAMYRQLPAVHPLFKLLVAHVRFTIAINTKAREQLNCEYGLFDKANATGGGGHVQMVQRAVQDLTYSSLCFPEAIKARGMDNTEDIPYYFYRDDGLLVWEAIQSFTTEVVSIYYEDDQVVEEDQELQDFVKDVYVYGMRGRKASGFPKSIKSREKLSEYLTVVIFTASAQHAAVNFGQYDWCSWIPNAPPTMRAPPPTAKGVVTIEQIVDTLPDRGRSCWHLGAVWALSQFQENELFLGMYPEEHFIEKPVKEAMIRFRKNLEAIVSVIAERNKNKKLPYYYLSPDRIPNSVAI
The experiment in a line: RBL-1 5-Lipoxygenase Screen. Type of assay: biochemical. Conditions: decrease in 5-HETE + 5,12-diHETE formation relative to control, read-out: Per cent inhibition of 5-lipoxygenase at × μM concentration; for inhibition at 20 µM: at 20 μM compound. On the procedure:
(1) RBL-1 5-Lipoxygenase Screen
5-Lipoxygenase enzyme was prepared as a 10,000 g supernatant from RBL-1 cells by the method of Jakschik (Jakschik, B. A., F. F. Sun, L. M. Lee, and M. M. Steinhoff, 1980, Biochem. Biophys. Res. Comm. 95, 103). The 10,000 g supernatant was diluted with homogenization buffer to the equivalent of 1.5-2.5×10^7 cells. ml.^-1 and made 2 mM with respect to CaCl2. Aliquots of 0.5 ml were then dispensed into tubes, and incubated at 29° C. with 5 ul ethanol or compound in ethanol at the desired concentration for 2 min. Then [1-^14 C] arachidonic acid was added in buffer to give a final concentration of 6.3 uM and 0.2 uCi per incubation, and the reaction continued at 29° C. for 2 min. The reaction was terminated by adding 1 ml of acetone and cooling on ice, 0.5 ml of ice-cold saline and 100 ul of 2N formic acid were added, and the mixture was extracted with 2×2 ml of chloroform. The extract was stored under N2 at -20° C. until analysis by chromatography. Activity was measured as the percentage of total radioactivity found in 5-HETE and 5,12-diHETE, and inhibition calculated as the decrease in formation of the sum of these two species in compound-treated incubates relative to control incubations.

In assay [2] the test system is cyclo-oxygenase (bovine seminal vesicle microsomes). The assay is described as follows: Cyclo-oxygenase Screen. Particulars: at 50 μM compound; decrease in prostaglandin formation. The class given is biochemical. How it is done:
(2) Cyclo-oxygenase Screen
Compounds were preincubated with the incubation constitutents for 5 min at 37° C. before the reaction was started by the addition of the arachidonic acid. The reaction was continued at 37° C. for 2 min, then stopped by placing the incubations on ice and the addition of 1.2 ml 0.2M citric acid. Unmetabolised substrate and prostaglandin products were extracted in ethyl acetate (2×4 ml), the combined extracts washed with 0.8 ml water, and separated by thin-layer chromatography (Kieselgel GF254 plates in ethyl acetate:acetone:glacial acetic acid, 90:10:1, v/v). Recovery was 65-80%. The regions on the thin-layer chromatography plate that chromatographed with authentic arachidonic acid or prostaglandins E2 and F2 α (Rf 's 0.70, 0.28 and 0.16 respectively) were scraped and the radioactivity in each determined by liquid scintillation counting with a correction for quenching being made by the external standard-channels ratio method. Inhibition of cyclo-oxygenase activity was calculated from the decrease in prostaglandin formation. Each compound concentration was tested in triplicate and the 50% inhibitory concentration, if determined, was calculated by linear regression from the inhibitory data at, at least three different compound concentrations.

Molecules are shown by their SMILES.

`CCCCCCCCCCCC#Cc1cnccc1/C=C/C(=O)O` [Example 2, 3-[3-(1-Tridecynyl)-4-pyridyl)prop-2-enoic acid]: the inhibition at 20 µM in assay [1] came out at 30%.
On to `CCCCCCCCCCCC#Cc1cnccc1C=C(C(=O)O)C(=O)O` [Example 4, 2-[3-(1-Tridecynyl)-4-pyridyl]methylenepropane-1,3-dioic acid], for which the inhibition at 20 µM in assay [1] was found to be 72%. In assay [2], the “Per cent inhibition of cyclo-oxygenase at 50 μM concentration” value amounted to 15%.
For `CCCCCCCCCCCC#Cc1ccoc1/C=C/C(=O)O` [Example 7, 3-[3-(1-Tridecynyl)-2-furanyl]prop-2-enoic acid], the inhibition at 5 µM in assay [1] (at 5 μM compound) was determined as 38%. For the same molecule, in assay [2], the “Per cent inhibition of cyclo-oxygenase at 50 μM concentration” value stood at 46%.
